Measurements published in patent US11304956B2, “Use of 7-bromo-5-(O-chlorophenyl)-3-propoxy-1,2-dihydro-3H-1,4-benzodiazepin-2-one for inhibition of neuropathic pain and seizures of different etiology” (priority 2016, dated 2022).

Legend:
gastric mucosa = assay: Ulcerogenic effect, acute experiment (single intragastric dose); type: in vivo, rats; details: 3 hours; for Average score: 4-score scale; for Multiplicity of damage: number of ulcers per animal
Method: The disadvantage of most analgesics is the fact that they have ulcerogenic effect that interferes with their long-term use. We have studied this side effect of Compound 1 in acute and subchronic experiments. In the first scheme, the compound in the form of an aqueous suspension (Tween-80) was administered in single dose intragastrically to rats, which had previously been deprived of food for 16 hours with free access to water. After 3 hours, the animals were euthanized with a cervical dislocation, then, after dissection of the abdominal cavity, stomachs were ejected and washed in isotonic sodium chloride solution to take out the contents. Damage of stomach was determined visually. In the second scheme, the compound was administered intragastrically for 4 days, after that the extent of the damaging effect on the stomach was determined, as in the previous experiment.
Evaluation of ulcerogenic action was carried out on a 4-score scale:
0 score—no damage; 0.5 score—hyperemia (blood vessels overflow)
1 score—single minor lesions (1-3 point hemorrhages or small ulcers)
2 score—multiple (more than 3) lesions (erosions, pinpoint hemorrhages) or 1 large ulcer
3 score—significant and massive damages (erosions, hemorrhages) of the gastric mucosa with significant size (diameter up to 4 mm)
4 score—gross injuries (massive hemorrhages, erosions, perforations) that cover the entire surface of the gastric mucosa.
The average multiplicity index of damage to the gastric mucosa (the number of ulcers per animal) and the severity of the damage (in scores) were determined.
Compound 1 was administered over a wide dose range—in acute studies—50, 250, 500 and 1000 mg/kg. For the subchronic experiment, the compound was used at a dose of 50 mg/kg.

MES-induced seizures = assay: Maximal electroshock (MES) seizures; type: in vivo, non-linear male mice; details: Mus musculus; mice; corneal electrodes 50 Hz, 50 mA, 0.2 s; interval in brackets; read-out: Anticonvulsive activity (ED50), MES
Excerpt: (§1) In many cases, the presence of anticonvulsant (antiepileptic) effect of the compounds correlates with analgesic properties on corresponding models of neuralgia. As a general step is a primary screening of new anticonvulsant compounds on rodents with the help of pentylenetetrazole test and MES (maximal electroshock seizures) as they have a qualitative difference in development and manifestations of seizures. It is believed that the compound ability to prevent the MES-induced seizures is connected with impulse spread inhibition throughout the central nervous system. It is believed that the ability to prevent the MES-induced seizures development indicates the potential efficacy of the compound in the preventing propagation of a pulse along the neural tissue (see Tompson E. Medicines. Bioscreening/Under the editorship of A. V. Stefanova.-K.: Avitsenna, 1998.—250 p.).
For MES-induced seizures experimental animals were exposed to electric stimulation through the corneal electrodes (50 Hz, 50 mA for mice during 0.2 s). The number of animals with the maximum tonic extension of the hind limbs, which occurs in almost 100% of the animals in the control group, was calculated. For the statistically significant determination of ED50, 3 doses of the test compound were used; the effect of each dose was studied in 6-8 animals.

[1] = ED50 by analgesic effect (preliminary studies / literature data); type: in vivo; details: according to preliminary studies
Method: After oral administration of Compound 1 and ketorolac at a dose of 3 mg/kg (which is ED50 according to the literature data for ketorolac), the degree of analgesic effect of the compound exceeded the effect of reference drug both by strength and duration.
To determine the safety of this compound in a chronic trial during long-term administration, it was administered to rats for 28 days at a dose close to ED50 by analgesic effect (0.5 mg/kg).

[2] = test system: pentylenetetrazole-induced convulsions; assay: Pentylenetetrazole-induced seizures; type: in vivo, non-linear male mice; details: Mus musculus, sc; mice; pentylenetetrazole 120 mg/kg subcutaneously; interval (0.83-0.97) printed on the next line; read-out: Anticonvulsive activity (ED50), Pentylenetetrazole
Excerpt: as §1
The experiments were performed on non-linear male mice weighing 19-29 g. Pentylenetetrazole was administered subcutaneously in the cervical region of the back. […]
For MES-induced seizures experimental animals were exposed to electric stimulation through the corneal electrodes (50 Hz, 50 mA for mice during 0.2 s). The number of animals with the maximum tonic extension of the hind limbs, which occurs in almost 100% of the animals in the control group, was calculated. […]

[3] = test system: acetic acid "writhing" test; details: intraperitoneal administration of acetic acid; earlier work of the applicants; cited from earlier work
[4] = 50 mg/kg single intragastric dose
[5] = 250 mg/kg single intragastric dose
[6] = 500 mg/kg single intragastric dose
[7] = 1000 mg/kg single intragastric dose

SMILES: CCCOC1N=C(c2ccccc2Cl)c2cc(Br)ccc2NC1=O (stereo not shown) [Compound 1, 7-bromo-5-(o-chlorophenyl)-3-propoxy-1,2-dihydro-3H-1,4-benzodiazepin-2-one]
- Number of animals with lesions of the gastric mucosa, score 1 (gastric mucosa; [4]): 3
- Number of animals with lesions of the gastric mucosa, score 2 (gastric mucosa; [4]): 0
- Number of animals with lesions of the gastric mucosa, score 3 (gastric mucosa; [4]): 0
- Number of animals with lesions of the gastric mucosa, score 4 (gastric mucosa; [4]): 0
- Average score (gastric mucosa; [4]): 0.2 ± 0.13
- Multiplicity of damage (gastric mucosa; [4]): 0.5 ± 0.34
- Number of animals with lesions of the gastric mucosa, score 1 (gastric mucosa; [5]): 5
- Number of animals with lesions of the gastric mucosa, score 2 (gastric mucosa; [5]): 2
- Number of animals with lesions of the gastric mucosa, score 3 (gastric mucosa; [5]): 0
- Number of animals with lesions of the gastric mucosa, score 4 (gastric mucosa; [5]): 0
- Average score (gastric mucosa; [5]): 0.8 ± 0.25
- Multiplicity of damage (gastric mucosa; [5]): 0.9 ± 0.31
- Number of animals with lesions of the gastric mucosa, score 1 (gastric mucosa; [6]): 7
- Number of animals with lesions of the gastric mucosa, score 2 (gastric mucosa; [6]): 3
- Number of animals with lesions of the gastric mucosa, score 3 (gastric mucosa; [6]): 0
- Number of animals with lesions of the gastric mucosa, score 4 (gastric mucosa; [6]): 0
- Average score (gastric mucosa; [6]): 1.0 ± 0.21
- Multiplicity of damage (gastric mucosa; [6]): 1.2 ± 0.25
- Number of animals with lesions of the gastric mucosa, score 1 (gastric mucosa; [7]): 8
- Number of animals with lesions of the gastric mucosa, score 2 (gastric mucosa; [7]): 3
- Number of animals with lesions of the gastric mucosa, score 3 (gastric mucosa; [7]): 0
- Number of animals with lesions of the gastric mucosa, score 4 (gastric mucosa; [7]): 0
- Average score (gastric mucosa; [7]): 1.3±0.21
- Multiplicity of damage (gastric mucosa; [7]): 2.0 ± 0.37
- ED50 (MES-induced seizures): 8.2 mg/kg
- ED50 [1]: 0.5 mg/kg
- ED50 [2]: 0.91 mg/kg
- Analgesic activity in the "writhing" test [3]: high analgesic activity
